Nine compounds from ChEMBL document CHEMBL1124620, “New 1,4-dihydropyridine derivatives combining calcium antagonism and alpha-adrenolytic properties” (J Med Chem, 1989) can be followed below.

The target in test [1] is T1, Adrenergic receptor alpha-1 (Rattus norvegicus, UniProt P15823+P23944+P43140).
T1 sequence (P15823 whole entry): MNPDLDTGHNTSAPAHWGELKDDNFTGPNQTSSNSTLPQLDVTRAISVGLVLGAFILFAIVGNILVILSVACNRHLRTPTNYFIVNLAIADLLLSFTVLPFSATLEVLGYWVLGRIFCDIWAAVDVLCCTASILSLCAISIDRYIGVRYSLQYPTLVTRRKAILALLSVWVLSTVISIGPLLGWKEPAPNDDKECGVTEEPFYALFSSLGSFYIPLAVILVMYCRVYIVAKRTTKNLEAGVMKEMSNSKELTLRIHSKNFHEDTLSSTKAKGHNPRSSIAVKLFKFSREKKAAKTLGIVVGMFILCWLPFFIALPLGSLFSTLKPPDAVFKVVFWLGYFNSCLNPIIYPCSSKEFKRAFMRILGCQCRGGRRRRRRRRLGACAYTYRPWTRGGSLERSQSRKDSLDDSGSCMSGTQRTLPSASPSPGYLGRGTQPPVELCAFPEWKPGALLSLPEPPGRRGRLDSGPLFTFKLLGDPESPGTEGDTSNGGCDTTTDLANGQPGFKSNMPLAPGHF
T1 sequence (P23944 whole entry): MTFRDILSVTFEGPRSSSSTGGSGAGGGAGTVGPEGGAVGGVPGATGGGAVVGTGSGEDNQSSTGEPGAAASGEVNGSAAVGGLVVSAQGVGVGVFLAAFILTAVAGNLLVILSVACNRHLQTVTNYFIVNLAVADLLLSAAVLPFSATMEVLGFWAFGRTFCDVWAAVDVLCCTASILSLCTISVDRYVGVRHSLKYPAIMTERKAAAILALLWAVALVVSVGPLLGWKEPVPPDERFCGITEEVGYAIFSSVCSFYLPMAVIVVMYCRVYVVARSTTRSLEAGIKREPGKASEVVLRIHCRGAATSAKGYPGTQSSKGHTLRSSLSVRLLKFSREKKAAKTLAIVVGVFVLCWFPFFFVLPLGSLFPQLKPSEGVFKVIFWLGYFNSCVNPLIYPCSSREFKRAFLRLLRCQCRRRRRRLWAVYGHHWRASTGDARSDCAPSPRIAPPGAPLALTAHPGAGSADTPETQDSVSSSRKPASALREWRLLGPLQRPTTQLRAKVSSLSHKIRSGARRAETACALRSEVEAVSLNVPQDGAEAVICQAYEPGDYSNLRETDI
T1 sequence (P43140 whole entry): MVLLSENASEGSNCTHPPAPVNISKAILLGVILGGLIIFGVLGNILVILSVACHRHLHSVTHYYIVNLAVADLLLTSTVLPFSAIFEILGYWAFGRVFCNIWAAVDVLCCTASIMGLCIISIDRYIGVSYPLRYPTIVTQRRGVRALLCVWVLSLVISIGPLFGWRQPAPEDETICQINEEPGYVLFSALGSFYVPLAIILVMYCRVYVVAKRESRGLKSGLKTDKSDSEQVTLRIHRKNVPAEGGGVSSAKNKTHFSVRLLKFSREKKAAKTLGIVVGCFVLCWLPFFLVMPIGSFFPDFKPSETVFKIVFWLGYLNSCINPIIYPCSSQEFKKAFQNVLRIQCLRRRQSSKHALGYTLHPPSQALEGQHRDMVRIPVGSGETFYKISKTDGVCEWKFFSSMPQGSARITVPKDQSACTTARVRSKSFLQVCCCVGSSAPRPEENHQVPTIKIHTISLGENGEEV
Description: Alpha-1-adrenolytic activity was assessed from the ability to inhibit [3H]prazosin binding to rat cerebral cortex preparation. Format: tissue-based.

For test [2], the target named is T2, Adrenergic receptor alpha-2 (Rattus norvegicus, UniProt P22086+P19328+P22909).
T2 sequence (P22086 whole entry): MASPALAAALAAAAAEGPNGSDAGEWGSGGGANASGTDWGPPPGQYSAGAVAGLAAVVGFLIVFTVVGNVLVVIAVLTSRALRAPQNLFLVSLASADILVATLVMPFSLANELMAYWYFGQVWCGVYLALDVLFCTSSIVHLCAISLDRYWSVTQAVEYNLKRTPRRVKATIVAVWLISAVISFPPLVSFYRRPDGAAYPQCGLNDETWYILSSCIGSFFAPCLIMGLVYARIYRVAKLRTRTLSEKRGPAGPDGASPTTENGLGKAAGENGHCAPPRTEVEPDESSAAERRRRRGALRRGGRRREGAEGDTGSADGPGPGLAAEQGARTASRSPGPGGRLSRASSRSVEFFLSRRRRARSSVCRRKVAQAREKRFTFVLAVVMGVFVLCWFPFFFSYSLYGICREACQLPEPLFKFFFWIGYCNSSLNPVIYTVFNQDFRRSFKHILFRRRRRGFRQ
T2 sequence (P19328 whole entry): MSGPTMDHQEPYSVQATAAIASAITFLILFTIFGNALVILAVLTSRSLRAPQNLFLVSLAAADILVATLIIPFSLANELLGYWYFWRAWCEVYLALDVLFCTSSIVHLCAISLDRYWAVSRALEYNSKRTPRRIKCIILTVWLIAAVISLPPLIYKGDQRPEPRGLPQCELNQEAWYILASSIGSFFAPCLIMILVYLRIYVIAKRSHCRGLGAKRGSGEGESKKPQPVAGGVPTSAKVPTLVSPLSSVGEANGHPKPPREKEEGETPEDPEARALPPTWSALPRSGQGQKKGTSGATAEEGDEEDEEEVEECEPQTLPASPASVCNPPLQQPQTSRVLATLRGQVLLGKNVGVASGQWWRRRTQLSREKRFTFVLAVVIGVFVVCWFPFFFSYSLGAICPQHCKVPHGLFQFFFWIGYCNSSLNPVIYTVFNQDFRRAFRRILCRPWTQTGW
T2 sequence (P22909 whole entry): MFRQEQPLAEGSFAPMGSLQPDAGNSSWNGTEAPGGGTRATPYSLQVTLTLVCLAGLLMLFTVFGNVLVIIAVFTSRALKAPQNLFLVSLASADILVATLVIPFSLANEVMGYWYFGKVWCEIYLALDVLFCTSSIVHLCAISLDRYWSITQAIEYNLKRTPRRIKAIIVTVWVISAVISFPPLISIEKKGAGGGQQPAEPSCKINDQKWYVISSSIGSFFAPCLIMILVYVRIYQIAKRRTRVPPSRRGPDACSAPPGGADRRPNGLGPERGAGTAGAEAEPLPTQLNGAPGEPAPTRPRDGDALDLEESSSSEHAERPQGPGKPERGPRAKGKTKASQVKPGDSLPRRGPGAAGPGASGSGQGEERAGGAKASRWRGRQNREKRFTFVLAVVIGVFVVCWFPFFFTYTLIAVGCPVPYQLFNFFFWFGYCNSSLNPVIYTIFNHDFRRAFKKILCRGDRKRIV
Description: Ability to inhibit [3H]yohimbine binding to alpha-2 adrenergic receptor of rat cerebral cortex preparation. Type of test: tissue-based.

For `CO/C(O)=C1\C(C)=NC(C)=C(C(=O)OC(C)CN(C)CC2COc3ccccc3O2)C1c1cccc([N+](=O)[O-])c1.Cl` (configuration not stated), the IC50 in test [1] was 1000 nM; in test [2] it was 470 nM.

Take `COC(=O)C1=C(C)NC(C)=C(C(=O)OCCN(C)C[C@H]2COc3ccccc3O2)[C@@H]1c1cccc([N+](=O)[O-])c1.Cl` (stereo in doubt; 6a): the figures for the concentration for half-maximal inhibition (IC50) in test [1] and in test [2] were 2400 nM and 4000 nM, respectively. In the case of `CO/C(O)=C1\C(C)=NC(C)=C(C(=O)OCCN(C)C(c2ccccc2)C2CCCCC2)C1c1cccc([N+](=O)[O-])c1.Cl` (configuration not stated), the IC50 in test [1] came out at 75000 nM; in test [2], 16000 nM. With `CO/C(O)=C1\C(C)=NC(C)=C(C(=O)OCCN(C)C(C)COc2ccccc2)C1c1cccc([N+](=O)[O-])c1.Cl` (configuration not stated), the IC50 in test [1] came out at 380 nM; in test [2], 480 nM. On the same counts, the results for `CO/C(O)=C1\C(C)=NC(C)=C(C(=O)OCCN2CCC(n3c(O)nc4ccccc43)CC2)C1c1cccc([N+](=O)[O-])c1` (configuration not stated) are 41 nM and 1600 nM. On the same counts, the results for `CO/C(O)=C1\C(C)=NC(C)=C(C(=O)OCCN(C)CC2COc3ccccc3O2)C1c1ccccc1[N+](=O)[O-]` (configuration not stated) are 300 nM and 270 nM.

As to `CC1=NC(C)=C(C(=O)OC(C)CN(C)CC2COc3ccccc3O2)C(c2cccc([N+](=O)[O-])c2)/C1=C(\O)OC(C)C.Cl` (configuration not stated), the IC50 in test [1] worked out at 3900 nM. In the case of `CO/C(O)=C1\C(C)=NC(C)=C(C(=O)OCCN(C)CC2COc3ccccc3O2)C1c1cccc([N+](=O)[O-])c1.Cl` (configuration not stated), the results for the half-inhibitory concentration (IC50) in test [1] and in test [2] were 500 nM and 480 nM, respectively.

Turning to `COC(=O)C1=C(C)NC(C)=C(C(=O)OCCN(C)C[C@H]2COc3ccccc3O2)[C@@H]1c1cccc([N+](=O)[O-])c1.Cl` (stereo in doubt; 6b), the IC50 turned out to be 2300 nM in test [1] and 140 nM in test [2].

The term IC50 denotes the midpoint of a concentration-inhibition curve.
